Test results reported in patent US20100152188A1, “Novel Heterocyclic Compounds” (priority 2005, published 2010).

Key:
[1] = system: MDAMB-231/U 251; test: Anti-cancer screen (MTT), MDAMB-231/U 251; type: cell-based; settings: for CC50: 48 h, read-out: MDAMB-231/U 251 LC50; for GI50 / IC (TGI): 48 hours with compound, MTT, tested at 0.01-100 µM
Method in brief: (§1)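 5000 cells/well, DMEM + 10% FBS, 24 h attach; cpd 0.01–100 µM ×5 conc, triplicate, 48 h, 37 °C/5% CO2; MTT 3 h, DMSO solubilisation, A570; %growth vs control and T0 → GI50/TGI/LC50.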

[2] = system: NCIH460, HCT116, MDAMB-231/U 251; test: Anti-cancer screen, mean GI50 over the cell lines; type: cell-based; settings: in µM
Method in brief: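 HCT116, NCIH460 and U251 cells (5000/well) were seeded for 24 h, then exposed in triplicate to 0.01, 0.1, 1, 10 and 100 µM final compound for 48 h. Viability was read by MTT (3 h, absorbance 570 nm), and percent growth was calculated against untreated controls and a T0 plate read at compound addition.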

[3] = system: HDAC; test: HDAC inhibition; type: biochemical; settings: for HDAC Inhibition 1 μM: compound at 1 μM; for HDAC Inhibition 10 μM: compound at 10 μM
[4] = system: NCIH460; test: Anti-cancer screen (MTT), NCIH460; type: cell-based; settings: Homo sapiens, NCI-H460, 48 hours with compound, tested at 0.01-100 µM
Method in brief: as §1

[5] = system: HCT116; test: Anti-cancer screen (MTT), HCT116; type: cell-based; settings: Homo sapiens, HCT-116, 48 hours with compound, tested at 0.01-100 µM
Method in brief: as §1

SMILES | CC50 [1] | GI50 [1] | IC (TGI) [1] | Mean GI50 [2] | HDAC Inhibition 1 μM [3] | HDAC Inhibition 10 μM [3] | GI50 [4] | IC (TGI) [4] | LC50 [4] | GI50 [5] | IC (TGI) [5] | LC50 (concentration giving 50% net cell kill relative to T0) [5]
O=C(CCCCCNC(=O)Cc1csc(NC(=O)OCc2cccnc2)n1)NO [Example 87, pyridin-3-ylmethyl[4-(2-{[6-(hydroxyamino)-6-oxohexyl]amino}-2-oxoethyl)-1,3-thiazol-2-yl]carbamate] | > 100 µM | 10 µM | > 100 µM | >100 | 42.24 | 87.80 | > 100 µM | > 100 µM | > 100 µM | > 100 µM | > 100 µM | > 100 µM
O=C(Nc1ccc(C(=O)NO)cc1)OCC1c2ccccc2-c2ccccc21 [Example 76] | 90 µM | 3 µM | 9 µM | 6.8 | 50.50 | 75.80 | 10 µM | 82 µM | > 100 µM | 7.5 µM | 65 µM | > 100 µM
O=C(CCCCCNC(=O)Cc1csc(NC(=O)OCc2nccs2)n1)NO [Example 96, 1,3-Thiazol-2-ylmethyl[4-(2-{[6-(hydroxyamino)-6-oxohexyl]amino}-2-oxoethyl)-1,3-thiazol-2-yl]carbamate] | > 100 µM | 70 µM | > 100 µM | >100 | 52.41 | 86.63 | > 100 µM | > 100 µM | > 100 µM | > 100 µM | > 100 µM | > 100 µM
Nc1ccccc1NC(=O)Cc1csc(NC(=O)OCc2nc3ccccc3s2)n1 [Example 21, 1,3-Benzothiazol-2-ylmethyl(4-{2-[(2-aminophenyl)amino]-2-oxoethyl}-1,3-thiazol-2-yl)carbamate] | > 100 µM | 4 µM | 9 µM | 9 | 4.41 | 0.57 | 15 µM | > 100 µM | > 100 µM | 8 µM | > 100 µM | > 100 µM
O=C(Cc1csc(NC(=O)OCc2cccs2)n1)NO [Example 2, 2-Thienylmethyl{4-[2-(hydroxyamino)-2-oxoethyl]-1,3-thiazol-2-yl}carbamate] | > 100 µM | > 100 µM | > 100 µM | >100 | 0.8 | 22.42 | > 100 µM | > 100 µM | > 100 µM | > 100 µM | > 100 µM | > 100 µM
CNC(=O)c1ccc(CNC(=O)OCc2cccs2)cc1 [Example 40, 2-Thienylmethyl{4-[(methylamino)carbonyl]benzyl}carbamate] | > 100 µM | 14 µM | > 100 µM | >100 | −1.9 | 8.6 | > 100 µM | > 100 µM | > 100 µM | 100 µM | > 100 µM | > 100 µM
O=C(Cc1csc(NC(=O)OCc2ccncc2)n1)NO [Example 4, Pyridin-4-ylmethyl{4-[2-(hydroxyamino)-2-oxoethyl]-1,3-thiazol-2-4.yl}carbamate] | > 100 µM | 6 µM | > 100 µM | 13 | 5.6 | 38.13 | 20 µM | > 100 µM | > 100 µM | > 100 µM | > 100 µM | > 100 µM
O=C(NCc1ccc(C(=O)N2CCN(Cc3ccc4c(c3)OCO4)CC2)cc1)OCc1nc2ccccc2s1 [Example 66, 1,3-Benzothiazol-2-ylmethyl(4-{[4-(1,3-benzodioxol-5-ylmethyl)piperazin-1-yl]carbonyl}benzyl)carbamate] | > 100 µM | 6 µM | > 100 µM | 3.93 | 8.57 | 12.98 | 1 µM | > 100 µM | > 100 µM | 4.8 µM | > 100 µM | > 100 µM
